Data set [1] has as its system Mycobacterium tuberculosis. The experiment in a line: Antimycobacterial activity against Mycobacterium tuberculosis H37Rv ATCC 25618 after 6 days by resazurin-based assay. Format: functional. The note with it: H37Rv ATCC 25618, 144 h. A general note: Resazurin is reduced to fluorescent resorufin, in cell work by metabolically active cells.
Data set [2] has as its system HepG2. The experiment in a line: Cytotoxicity against human HepG2 cells assessed as effect on mitochondrial membrane potential after 48 hrs by TMRM-staining based cell health assay. It counts as ADME. The conditions noted are these: HepG2, 48 h.
For data set [3], the system named is HepG2. The experiment in a line: cells. It counts as ADME, cell-based. The conditions noted are these: Homo sapiens, HepG2, 48 h.
Description: Cytotoxicity against human HepG2 cells assessed as effect on nuclear morphology after 48 hrs by Hoechst 33342-staining based cell health assay
A short description of data set [4]: Intrinsic clearance in human liver microsomes at 0.5 uM preincubated with NADPH and measured up to 30 mins by LC-MS/MS analysis. Format: ADME, microsome. (Liver microsomes are a subcellular fraction often used to study metabolism.)
Data set [5] in a line: Intrinsic clearance in mouse liver microsomes at 0.5 uM preincubated with NADPH and measured up to 30 mins by LC-MS/MS analysis. Format: ADME, microsome.
In data set [6] the test system is HepG2. The experiment in a line: Cytotoxicity against human HepG2 cells assessed as effect on membrane permeability after 48 hrs by TOTO-3 iodide-staining based cell health assay. The note with it: HepG2, 48 h. It counts as ADME.
The next data set is described as follows: physchem. The conditions noted are these: buffer, pH 7.4.

Each structure is given as a SMILES string. Values after ≈ are worked out from the molar mass of the structure shown.

The term MIC90 denotes the lowest concentration that inhibits either 90% of growth or 90% of the strains tested, depending on the study. A higher MIC90 goes with weaker potency. The IC50 is the concentration needed to halve the response being measured. For orientation: solubility (kinetic) means solubility judged after dilution from a stock solution rather than from solid.

In data set [1], `Cc1cc(CN2CCC3(CC2)OCCc2sccc23)c(C)n1-c1ccccn1` gave an MIC90 of 14 µM (≈ 5.51 µg/mL). This lies in the double-digit micromolar range.

Regarding `c1ccc(CN2CCC3(CC2)OCCc2sccc23)cc1`, in data set [1], the MIC90 is more than 5 µM.

With `FC(F)(F)Oc1ccc(Oc2ccc(CN3CCC4(CCCO4)CC3)cc2)cc1`, the MIC90 in data set [1] came to 1.3 µM (≈ 0.53 µg/mL). Besides, the IC50 with HepG2 [2] was determined as 141 µM; with HepG2 [3], 96.9 µM; in the data set with HepG2 [6], 133 µM. Further, the figures for the CLH in data set [4] and in data set [5] were 1.5 mL/min/g and 0.6 mL/min/g, respectively.

In the case of `c1ccc2c(c1)CCOC21CCN(Cc2ccc3c(c2)OCCO3)CC1`, the MIC90 in data set [1] stood at 0.94 µM (≈ 0.33 µg/mL). This lies in the sub-micromolar range.

Molecule `c1cc2c(s1)CCOC21CCN(Cc2ccc3c(c2)CCCC3)CC1` yielded an MIC90 in data set [1] of 0.02 µM (≈ 0.00707 µg/mL). Further, the CLH in data set [4] is 22.6 mL/min/g; in data set [5] it was more than 30 mL/min/g.

In turn, `COc1ccc2c(c1)CCOC21CCN(Cc2ccc3c(c2)OCCO3)CC1` came in with an MIC90 in data set [1] of more than 10 µM.

`CC(C)(C)c1ccc(CN2CCC3(CC2)OCCCO3)cc1`: the MIC90 in data set [1] came to 2.5 µM (≈ 0.759 µg/mL). For the same molecule, the IC50 in the data set on HepG2 [2], with HepG2 [3] and with HepG2 [6] was more than 200 µM each time. For the same molecule, the CLH in data set [4] worked out at 1.4 mL/min/g; in data set [5], 13.5 mL/min/g. Also, the kinetic solubility at 1 h in “physchem” turned out to be 374 µM (≈ 113 µg/mL).

Regarding `c1cc2c(s1)CCOC21CCN(Cc2cnc3c(c2)OCCO3)CC1`, the MIC90 in data set [1] was more than 5 µM.

In data set [1], `Cc1cc(CN2CCC3(CC2)OCCc2sccc23)c(C)n1-c1ccccc1` gave an MIC90 of 3 µM (≈ 1.18 µg/mL). This lies in the single-digit micromolar range.

With `FC(F)(F)Oc1ccc(Oc2ccc(CN3CCC4(CC3)OCCCO4)cc2)cc1`, the MIC90 in data set [1] came to 0.65 µM (≈ 0.275 µg/mL). Further, the IC50 in the data set with HepG2 [2] is 28.8 µM; in the data set with HepG2 [3], 26.3 µM; in the data set with HepG2 [6], 25.7 µM. In addition, the CLH in data set [4] and in data set [5] was less than 0.5 mL/min/g each time. This molecule also came in with a kinetic solubility at 1 h in the data set “physchem” of 53 µM (≈ 22.4 µg/mL).

`c1cc2c(s1)CCOC21CCNCC1` had an MIC90 in data set [1] of more than 5 µM.

In data set [1], `c1cc2c(s1)CCOC21CCN(Cc2ccc3c(c2)CCCO3)CC1` came in with an MIC90 of 0.23 µM (≈ 0.0818 µg/mL). The CLH was 2.9 mL/min/g in data set [4] and more than 30 mL/min/g in data set [5].

Turning to `Cc1cccc(CN2CCC3(CC2)OCCc2sccc23)c1`, the MIC90 in data set [1] was found to be 0.63 µM (≈ 0.197 µg/mL). Also, the values for the CLH in data set [4] and in data set [5] were 5.2 mL/min/g and more than 30 mL/min/g, respectively.

In the case of `FS(F)(F)(F)(F)c1ccc(CN2CCC3(CC2)OCCc2sccc23)cc1`, the MIC90 in data set [1] was 0.14 µM (≈ 0.0596 µg/mL). In addition, the CLH is 3 mL/min/g in data set [4] and 18.2 mL/min/g in data set [5].

In data set [1], `CN1CCCC2(CCN(Cc3ccc(Oc4ccc(OC(F)(F)F)cc4)cc3)CC2)C1` registered an MIC90 of 2.5 µM (≈ 1.09 µg/mL). Also, the 50% inhibitory concentration (IC50) was determined as 12.2 µM in the data set with HepG2 [2], 6.9 µM in the data set with HepG2 [3] and 8 µM in the data set with HepG2 [6]. Moreover, in “physchem”, the kinetic solubility at 1 h was 205 µM (≈ 89.1 µg/mL).

`Cc1ccccc1CN1CCC2(CC1)OCCc1sccc12`: the MIC90 in data set [1] was more than 5 µM.

Regarding `O=S(=O)(c1ccc2c(c1)OCCO2)N1CCC2(CC1)OCCc1sccc12`, the MIC90 in data set [1] was more than 10 µM.

`FC(F)(F)Oc1ccc(Oc2ccc(CN3CCC4(CCCCO4)CC3)cc2)cc1` returned an MIC90 in data set [1] of 0.31 µM (≈ 0.131 µg/mL). Moreover, the results for the IC50 in the data set on HepG2 [2], with HepG2 [3] and in the data set with HepG2 [6] were 46.3 µM, 38.7 µM and 43.7 µM, respectively. The CLH in data set [4] amounted to 1.7 mL/min/g; in data set [5], 1.2 mL/min/g. Also, the solubility (kinetic) at 1 h in the data set “physchem” is less than 1 µM.

In data set [1], `Cc1ccc(CN2CCC3(CC2)OCCc2sccc23)[nH]1` gave an MIC90 of more than 5 µM. Further, the results for the CLH in data set [4] and in data set [5] were 4.1 mL/min/g and 28.7 mL/min/g, respectively.

In the case of `FC(F)(F)Oc1ccc(Oc2ccc(CN3CCC4(CCNC4)CC3)cc2)cc1`, the MIC90 in data set [1] was more than 5 µM. The IC50 with HepG2 [2] was 6.6 µM; in the data set on HepG2 [3], 4.9 µM; in the data set on HepG2 [6], 5.7 µM. The molecule further displayed a solubility (kinetic) at 1 h in the data set “physchem” of 117 µM (≈ 47.6 µg/mL).

`Cn1cc(CN2CCC3(CC2)OCCc2sccc23)c2ccccc21` registered an MIC90 in data set [1] of 0.63 µM (≈ 0.222 µg/mL). Also, the CLH in data set [4] was 4.5 mL/min/g; in data set [5] it was more than 30 mL/min/g.

Turning to `O=C1OCCC12CCN(Cc1ccc(Oc3ccc(OC(F)(F)F)cc3)cc1)CC2`, in data set [1], the MIC90 is more than 5 µM. The IC50 with HepG2 [2] is more than 200 µM; in the data set with HepG2 [3], 74.1 µM; with HepG2 [6], 75.9 µM. Moreover, the solubility (kinetic) at 1 h in “physchem” stood at 121 µM (≈ 51 µg/mL).

`COc1ccc(-n2c(C)cc(CN3CCC4(CC3)OCCc3sccc34)c2C)cc1` had an MIC90 in data set [1] of 3 µM (≈ 1.27 µg/mL).

In data set [1], `CC1(CCNCc2ccc3c(c2)OCCO3)OCCc2sccc21` (stereo not drawn) returned an MIC90 of more than 5 µM.

In the case of `c1ccc2oc(CN3CCC4(CC3)OCCc3ccsc34)cc2c1`, the MIC90 in data set [1] was more than 100 µM.

Molecule `FC(F)(F)Oc1ccc(Oc2ccc(CN3CCC4(CC3)OCCO4)cc2)cc1` yielded an MIC90 in data set [1] of more than 5 µM. Moreover, the values for the IC50 in the data set on HepG2 [2], with HepG2 [3] and in the data set on HepG2 [6] were 53.8 µM, 46.9 µM and 49.8 µM, respectively. In “physchem”, this molecule had a solubility (kinetic) at 1 h of 52 µM (≈ 21.3 µg/mL).

Regarding `c1ccc2c(CN3CCC4(CC3)OCCc3sccc34)c[nH]c2c1`, the MIC90 in data set [1] is 0.94 µM (≈ 0.318 µg/mL). Also, the CLH was determined as 3.1 mL/min/g in data set [4] and 7 mL/min/g in data set [5].

Molecule `Cc1ccc(CN2CCC3(CC2)OCCc2sccc23)cc1` displayed an MIC90 in data set [1] of 0.2 µM (≈ 0.0627 µg/mL). Also, the CLH in data set [4] was 22.5 mL/min/g; in data set [5], more than 30 mL/min/g.

`FC(F)(F)Oc1ccc(Oc2ccc(CN3CCCCC3)cc2)cc1` had an MIC90 in data set [1] of more than 5 µM. For the same molecule, the IC50 in the data set on HepG2 [2] came to 49.5 µM; with HepG2 [3] it was 44.2 µM; in the data set on HepG2 [6], 46.3 µM. This molecule displayed a solubility (kinetic) at 1 h in “physchem” of 156 µM (≈ 54.8 µg/mL).

In data set [1], `Cc1cc(CN2CCC3(CC2)OCCc2sccc23)c(C)n1-c1cccnc1` registered an MIC90 of 14 µM (≈ 5.51 µg/mL).

Molecule `CN1C(=O)C=CCC12CCN(Cc1ccc(Oc3ccc(OC(F)(F)F)cc3)cc1)CC2` yielded an MIC90 in data set [1] of more than 5 µM. In addition, the figures for the IC50 with HepG2 [2], in the data set on HepG2 [3] and in the data set on HepG2 [6] were 36.3 µM, 39.4 µM and 29.2 µM, respectively. The molecule also had a kinetic solubility at 1 h in “physchem” of 87 µM (≈ 38.8 µg/mL).

Consider `c1cc2c(s1)CCOC2CCNCc1ccc2c(c1)OCCO2` (stereo not drawn), for which, in data set [1], the MIC90 was more than 5 µM.

`O=C(c1ccc2c(c1)OCCO2)N1CCC2(CC1)OCCc1sccc12`: in data set [1], the MIC90 was more than 80 µM.

Molecule `Cc1cc(CN2CCC3(CC2)OCCc2sccc23)c(C)n1-c1ccc(F)cc1` returned an MIC90 in data set [1] of 3 µM (≈ 1.23 µg/mL).

Take `c1ccc2c3c([nH]c2c1)C1(CCN(Cc2ccc4c(c2)OCCO4)CC1)OCC3`: the MIC90 in data set [1] was determined as 93 µM (≈ 36.3 µg/mL).

As to `CC(c1ccc(C(F)(F)F)cc1)N1CCC2(CC1)OCCc1sccc12` (stereo not drawn), the MIC90 in data set [1] was 0.63 µM (≈ 0.24 µg/mL). For the same molecule, the CLH was 4.6 mL/min/g in data set [4] and 18.1 mL/min/g in data set [5].

In the case of `Cc1ccc(CN2CCC3(CC2)OCCc2sccc23)cc1C`, the MIC90 in data set [1] amounted to 0.08 µM (≈ 0.0262 µg/mL). The CLH was 18.9 mL/min/g in data set [4] and more than 30 mL/min/g in data set [5].

Regarding `c1ccc2oc(CN3CCC4(CC3)OCCc3sccc34)cc2c1`, the MIC90 in data set [1] worked out at 2.7 µM (≈ 0.917 µg/mL).

In data set [1], `CC(C)(C)c1ccc(CN2CCC3(CC2)OCCc2sccc23)cc1` had an MIC90 of 0.02 µM (≈ 0.00711 µg/mL). For the same molecule, the CLH in data set [4] was 9.9 mL/min/g; in data set [5], more than 30 mL/min/g.

Turning to `O=C(Nc1ccc2c(c1)OCCO2)N1CCC2(CC1)OCCc1sccc12`, the MIC90 in data set [1] was more than 10 µM.

`Clc1ccc2c(CN3CCC4(CC3)OCCc3sccc34)c[nH]c2c1`: the MIC90 in data set [1] worked out at 0.31 µM (≈ 0.116 µg/mL). The results for the CLH in data set [4] and in data set [5] were 1.3 mL/min/g and 10.3 mL/min/g, respectively.

On to `c1cc2c(s1)CCOC21CCN(Cc2ccc3c(c2)OCCO3)C1` (stereo not drawn), for which the MIC90 in data set [1] is more than 5 µM.

Source of the values: ChEMBL document CHEMBL4257587 (J Med Chem, 2018).
